Patent EP2319525A1, “Composition for treating insulin resistance” (Universitätsklinikum Hamburg-Eppendorf, priority 2009, dated 2011)
Side chains are listed from the residue outwards. Peptide text beside a SMILES is read from it. * marks the point of attachment. Nicotinoyl = O=C(c1cccnc1)*; Cbz = O=C(OCc1ccccc1)*

What was measured:
Format in all cases: cell-based, rodent
[1] = tested on: L6 myotubes; experiment: Uptake of H-3-labeled 2-Deoxy-D-glucose in differentiated L6 myotubes, short-term incubation (20 min + 10 min); conditions: CGP-42112A 10^-8 mol/L, alone and in combination with losartan 10^-7 mol/L
Description: The data presented below were generated in the rodent myoblast cell line L6 (ATCC #CRL-1458). […] L6 myotubes express both the AT-1 and the AT-2 receptor at relevant levels making these cells an ideal model to test the interference of both receptors with basal and insulin-mediated glucose uptake. L6 myoblasts were maintained as proliferating myoblasts in DMEM high glucose medium supplemented with 10% FCS, 4 mM L-glutamine, 1 mM pyruvate at 37°C in the presence of 5% CO2. The seeding density used for the experiments was 2 x 10^4 cells/cm^2 on 1% gelatincoated dishes. To induce differentiation of myoblasts into myotubes, 90-100% confluent cultures (cultured on standard 6-well plates) were switched to DMEM supplemented with 2% adult horse serum. […] The uptake of H-3-labeled 2-Deoxy-D-glucose (GE Healthcare Biosciences), which cannot undergo further glycolysis, was measured as follows: • H-3-labeled 2-Deoxy-D-glucose uptake in the differentiated myotubes was analysed as described previously ([…] et al., Diabetologia (2005); 48 (1) :132-9) with minor modifications. […] Cell lysates were transferred to scintillation vials for radioactivity counting. Non-specific uptake was determined in the presence of cytochalasin B (10 μmol/L) and was subtracted from all values. […] The uptake of H-3-labeled 2-Deoxy-D-glucose was measured as described in Example 1 above.

[2] = tested on: L6 myotubes; experiment: Long-term (24 hours) stimulation: basal and insulin-mediated uptake of H-3-labeled 2-Deoxy-D-glucose in L6 myotubes
Description: (§1) The data presented below were generated in the rodent myoblast cell line L6 (ATCC #CRL-1458). […] L6 myotubes express both the AT-1 and the AT-2 receptor at relevant levels making these cells an ideal model to test the interference of both receptors with basal and insulin-mediated glucose uptake. L6 myoblasts were maintained as proliferating myoblasts in DMEM high glucose medium supplemented with 10% FCS, 4 mM L-glutamine, 1 mM pyruvate at 37°C in the presence of 5% CO2. The seeding density used for the experiments was 2 x 10^4 cells/cm^2 on 1% gelatincoated dishes. To induce differentiation of myoblasts into myotubes, 90-100% confluent cultures (cultured on standard 6-well plates) were switched to DMEM supplemented with 2% adult horse serum. Myoblast growth and myotube formation were examined using phase-contrast microscopy. The medium was changed every 2 days, and differentiation was allowed to continue for 10 days before the experimentation period.
(§2) L6 myotubes (n=9-12) cultured as described in example 1 were incubated either with angiotensin II (10^-7 mol/l), with a combination of angiotensin II (10^-7 mol/l) and AT-1 receptor blocker losartan (10^-7 mol/L), or with a combination of angiotensin II (10^-7 mol/l), losartan (10^-7 mol/L) and AT-2 receptor blocker PD 123319 (10^-7 mol/L). The uptake of H-3-labeled 2-Deoxy-D-glucose (GE Healthcare Biosciences), which cannot undergo further glycolysis, was measured as follows: • H-3-labeled 2-Deoxy-D-glucose uptake in the differentiated myotubes was analysed as described previously (Ceddia et al., Diabetologia (2005); 48 (1) :132-9) with minor modifications. Differentiated myotubes were serum-starved overnight in DMEM containing 1% glucose before being incubated with angiotensin II, the AT-1 receptor blocker losartan, and/or the AT-2 receptor blocker PD123319. […] Cell lysates were transferred to scintillation vials for radioactivity counting. Non-specific uptake was determined in the presence of cytochalasin B (10 µmol/L) and was subtracted from all values. […]

[3] = tested on: L6 myotubes; experiment: Uptake of H-3-labeled 2-Deoxy-D-glucose in differentiated L6 myotubes, short-term incubation (20 min + 10 min)
Description: as §1, §2

[4] = PD 123319 10^-7 mol/L added to angiotensin II 10^-7 mol/L + losartan 10^-7 mol/L

For CC[C@H](C)[C@H](NC(=O)[C@@H]1CCCN1C(=O)[C@H](Cc1c[nH]cn1)NC(=O)[C@H](CCCCNC(=O)[C@H](CCCNC(=N)N)NC(=O)OCc1ccccc1)NC(=O)[C@H](Cc1ccc(O)cc1)NC(=O)c1cccnc1)C(=O)O [CGP-42112A] (Nicotinoyl-YK([Arg-Cbz])HPI-OH), the “glucose uptake compared with the effect of angiotensin II” value [1] was “mimicked”.
For CCCCc1nc(Cl)c(CO)n1Cc1ccc(-c2ccccc2-c2nn[nH]n2)cc1 [losartan], the “basal glucose uptake of L6 myotubes” value ([2]; losartan 10^-7 mol/L alone) was “induced” and the “insulin-mediated glucose uptake of L6 myotubes” value ([2]; losartan 10^-7 mol/L alone, insulin 1 µg/ml) was “induced”.
Cc1cc(Cn2cnc3c2CC(C(=O)O)N(C(=O)C(c2ccccc2)c2ccccc2)C3)ccc1N(C)C (stereo not shown) [PD123319] was tested, and the “effect on the CGP-42112A-induced glucose uptake” value ([3]; PD 123319 10^-7 mol/L added to CGP-42112A 10^-8 mol/L + losartan 10^-7 mol/L) was “completely blocked”, the “effect on the glucose uptake enhanced by angiotensin II in the presence of losartan” value [3, 4] was “inhibited” and the “uptake of H-3-labeled 2-Deoxy-D-glucose” value ([3]; substance alone, 10^-7 mol/L, L6 myotubes, n=9-12) was “did not affect”. For the same compound, the “effect on the glucose uptake enhanced by angiotensin II in the presence of losartan” value [2, 4] was “completely absent”.
